Assay results reported in patent US20250302862A1, “SMALL RNA DRUG FOR INHIBITING ACTIVITY OF CANCER CELLS” (Institute of Basic Medical Sciences Chinese Academy of …, priority 2022, published 2025).

Assays:
[1] = tested on: breast cancer MDA-MB-231 cells; assay: Concentration-dependent proliferation inhibition, MTS; assay type: cell-based; conditions: gradient 0.01-100 noml/L, MTS after 48 h
Method: 1) Breast cancer MCF7 cells, breast cancer MDA-MB-231 cells, gastric cancer AGS cells, pancreatic cancer HS766T cells, pancreatic cancer ASPC-1 cells, and prostate cancer PC-3 cells with a cell density of more than 90% in 10 cm^2 plates were plated in 96-well according to the cell growth rate. Transfection was performed after 12 h, and the groups (3 wells per group) were divided as follows: • blank control group: 20 uL of opti-MEM • negative control group (NC group) and experimental group: • A. 10 uL of opti-MEM and 0.2 uL of iMax were mixed well for 5 min • B. 10 uL of opti-MEM and small RNA were mixed well (the concentration gradient of experimental group was set as: 0.01 noml/L, 0.03 noml/L, 0.1 noml/L, 0.39 noml/L, 0.78 noml/L, 1.56 noml/L, 3.125 noml/L, 6.25 noml/L, 12.5 noml/L, 25 noml/L, 50 noml/L, 100 noml/L; the final concentration of sRNA in NC group was 100 noml/L) • C. solution A and solution B were mixed well and let stand for 15 min, and then was added at a 20 uL system • Note: 100 uL of nuclease-free water was added to 2 nmol of small RNA dry powder for dissolution at a storage concentration of 20 umol/L
2) Detection of cell viability: MTS detection was performed after 48 h.
Formulation of MTS detection solution was as follows: opti-MEM:MTS A solution:MTS B solution=100:20:1. […] Absorbance values at wavelengths of 490 nm and 630 nm were measured in a microplate reader. […]

[2] = tested on: pancreatic cancer ASPC-1 cells; assay: Cell migration (Transwell); assay type: cell-based, human; conditions: 100 nmol/L, jetPRIME, 72 h
Method: (§1) 1) ASPC-1 cells and BXPC-3 cells with a cell density of more than 90% in 10 cm^2 dishes were digested and then resuspended with 1 mL of serum-free medium and counted. 100,000 cells (100 uL) were plated in the upper chamber, and complete medium with 10% FBS was added to the lower chamber of each Transwell chamber. Transfection was performed after 12 h, and the groups (3 wells per group) were divided: • blank control group: 10 uL of jetPRIME Buffer • negative control group (NC group) and experimental group: 10 uL of jetPRIME Buffer was mixed well with 0.5 uL of jetPRIME reagent and 0.5 uL of small RNA and let stand for 15 min, and then was added to each well at a 10 uL system (final concentration 100 nmol/L) • Note: 100 uL of nuclease-free water was added to 2 nmol of small RNA dry powder for dissolution at a storage concentration of 20 umol/L
After 72 h, the medium in upper and lower chambers was discarded. The cells were fixed with paraformaldehyde at room temperature for 15 min, stained with 0.1% crystal violet at room temperature for 15 min, and rinsed with PBS. The cells in the upper chamber were gently wiped off with cotton swabs, and the chamber was dried. A Leica inverted microscope DMi8 was turned on, the 5× objective lens was selected, the parameters were adjusted and the white balance was performed following the manual. Each chamber was photographed, followed by counting and statistic processing.
as §1, with “divided as follows:” for “divided:”

[3] = tested on: prostate cancer PC-3 cells; assay: Apoptosis detection (Annexin V / PI); assay type: cell-based, human; conditions: 100 nmol/L, 48 h
Method: 1) PC-3 cells with a cell density of more than 90% in 10 cm^2 dishes were plated in 12-well plates according to the cell growth rate, and transfected after 12 h, and the groups were divided as follows: • blank control group (4 wells): 200 uL of opti-MEM per well • negative control group (NC group) and experimental group (3 wells each): the system of each well was as follows • A. 100 uL of opti-MEM and 2 uL of iMax were mixed well for 5 min • B. 100 uL of opti-MEM and 5 uL of small RNA (final concentration 100 nmol/L) were mixed well • C. solution A and solution B were mixed well and let stand for 15 min, and then was added to each well at a 200 uL system • Note: 100 uL of nuclease-free water was added to 2 nmol of small RNA dry powder for dissolution at a storage concentration of 20 umol/L
The supernatant and cells were collected after 48 h and washed twice with pre-chilled PBS. The 4 tubes of cells in the blank control group were added respectively with: (1) 200 uL of 1× binding buffer; (2) 200 uL of 1× binding buffer and 5 uL of Annexin V stain; (3) 200 uL of 1× binding buffer and 5 uL of PI stain; (4) 200 uL of 1× binding buffer, 5 uL of Annexin V stain and 5 uL of PI stain. […] The live cell population and the position of quadrant gate were selected according to the blank control group, and then the apoptosis of the NC group and the experimental group was detected.

MDM-sRNA-39: small RNA derived from Maytenus hookeri, sequence GGGAUUGUAGUUCAAUUGGUCAGAGCACC (listed as RNA, chemistry not given here)
proliferation-inhibiting function (cell activity, MTS) [1]: concentration-dependent
cell migration [2]: inhibits
apoptosis [3]: promotes

MDM-sRNA-163: small RNA derived from Maytenus hookeri, sequence UGACUCUAGUCCGACUUUGUGAAAUGACU (listed as RNA, chemistry not given here)
proliferation-inhibiting function (cell activity, MTS) [1]: concentration-dependent
cell migration [2]: inhibits
apoptosis [3]: promotes
